According to patent US5885990A, “Substituted amidinonaphthyl ester derivative” (Torii Pharmaceutical Co., Ltd., priority 1995, dated 1999):
Counter-ions that a name gives are not always drawn.

Tests used:
[1] = tested on: plasminogen activator inhibitor (PAI-1); assay: Measurement of plasminogen activator inhibitor (PAI-1) antigen quantity in plasma; format: in vivo, rat; conditions: SD male rats, 100 mg/kg oral; plasma of Test (2); ELISA; Water control 54.2
Experimental: (3) Test of measurement of plasminogen activator inhibitor (PAI-1) antigen quantity:
Measurement of PAI-1 antigen quantity was conducted using the plasma obtained in the above Test (2).
Previously, 100 μl of a diluted 10 mM carbonate buffered solution of monoclonal antibody to PAI-1 was put in each well of a 96-well micro-titer plate and left to stand for 16 hours at 4° C., followed by washing, four times, with 10 mM phosphate buffer solution containing 0.1% Tween 20 and adding a standard solution and the plasma sample. After leaving for 2 hours at room temperature and washing again four times, 100 μl of an enzyme-labelled PAI-1 polyclonal antibody was added to carry out reaction at room temperature for 2 hours. After excess antibody was washed, 100 μl of citric acid buffer solution containing 10 mg of o-phenylenediamine and 0.1% hydrogen peroxide was added, followed by leaving it for 30 minutes at 30° C. to cause color formation. After the reaction was terminated by the addition of 50 μl of 2N sulfuric acid, absorbance at 405 nm was measured by a micro-plate reader to determine the PAI-1 antigen quantity in the plasma sample.

[2] = tested on: blood plasmin like activity; assay: Determination of blood plasmin like activity using synthetic substrate (plasma after oral dosing); format: in vivo, rat; conditions: SD male rats, 100 mg/kg oral, substrate Boc-Val-Leu-Lys-MCA, pH 8.5, 37° C., 30 minutes, Water control 0.07
Experimental: (2) Test of determination of blood plasmin like activity using synthetic substrate:
For the test, SD male rats (8 weeks old) after fasted overnight were used, and 100 mg/kg of the present compound was orally administered to the rats, and blood was drawn, with time, from the descending aorta as citrate-containing blood and subjected to centrifugation to obtain plasma. Water was orally administered to the rats of control group and plasma was similarly obtained.
To the plasma obtained were added 0.1M borate buffer solution (pH 8.5) and Boc-Val-Leu-Lys-MCA and incubation was conducted at 37° C. for 30 minutes.

[3] = tested on: pulmonary thrombosis of mouse models (thrombin-induced); assay: Preventive effect on death due to pulmonary thrombosis of mouse models; format: in vivo; parameters: key: ratio of survival rate to positive control group's survival rate; conditions: ddy male mice, 10 mg/kg oral; thrombin 10 units/mouse via caudal vein after 6 hours; survival rate 16 hours after thrombin, as ratio to survival rate of positive control Sepimostat mesilate
Experimental: (1) Preventive effect on death due to pulmonary thrombosis of mouse models:
For experiment, ddy male mice after a fast of 6 hours were used and 10 mg/kg of the present compound was orally administered. […] After lapse of 6 hours, 10 units/mouse of thrombin was administered to the mice through caudal vein to cause thrombosis for the mice. After 16 hours from thrombin-induction, mortality was checked and the preventive effect on death (survival rate) was indicated by the ratio to the survival rate of the positive control group.

Row | SMILES | PAI-1 antigen quantity [1] | Plasmin like activity [2] | Preventive effect on death [3]
1 | N=C(N)c1ccc2c(CC(N)=O)c(OC(=O)c3ccc(NC4=NCCN4)cc3)ccc2c1 [Example 1, 6-amidino-1-carbamoylmethyl-2-naphthyl 4-[(4,5-dihydro-1H-imidazol-2-yl)amino]-benzoate.dihydrochloride] | 28.5 ng/mL | 0.37 nmol/min/mL | 1.16
2 | CC(=O)NCCN=CNCNc1ccc(C(=O)Oc2ccc3cc(C(=N)N)ccc3c2CC(N)=O)cc1.Cl.Cl [Example 3, 6-amidino-1-carbamoylmethyl-2-naphthyl 4-[(2-acetylaminoethyl)iminomethylaminomethylamino]benzoate.dihydrochloride] | – | – | 1.09
3 | N=C(N)c1ccc2c(CCC(N)=O)c(OC(=O)c3ccc(NC4=NCCN4)cc3)ccc2c1 [Example 5, 6-amidino-1-(2-carbamoylethyl)-2-naphthyl 4-[(4,5-dihydro-1H-imidazol-2-yl)amino]-benzoate.dihydrochloride] | – | – | 1.00
4 | N=C(NCCO)Nc1ccc(C(=O)Oc2ccc3cc(C(=N)N)ccc3c2CC(N)=O)cc1 [Example 7, 6-amidino-1-carbamoylmethyl-2-naphthyl 4-[(2-hydroxyethyl)aminoiminomethylamino]-benzoate.dihydrochloride] | – | 0.62 nmol/min/mL | 1.05
5 | N=C(N)c1ccc2c(CC(N)=O)c(OC(=O)c3ccc([N+](=O)[O-])cc3)ccc2c1 [Example 11, 6-amidino-1-carbamoylmethyl-2-naphthyl 4-nitrobenzoate.hydrochloride] | – | – | 1.12
6 | N=C(N)c1ccc2c(CC(N)=O)c(OC(=O)c3ccc(N)cc3)ccc2c1 [Example 12, 6-amidino-1-carbamoylmethyl-2-naphthyl 4-aminobenzoate.dihydrochloride] | – | – | 1.05
7 | CN(C)c1ccc(C(=O)Oc2ccc3cc(C(=N)N)ccc3c2CC(N)=O)cc1 [Example 15, 6-amidino-1-carbamoylmethyl-2-naphthyl 4-dimethylaminobenzoate.dihydrochloride] | – | – | 1.05
8 | CN(C)CCNC(=N)Nc1ccc(C(=O)Oc2ccc3cc(C(=N)N)ccc3c2CC(N)=O)cc1 [Example 17, 6-amidino-1-carbamoylmethyl-2-naphthyl 4-[(2-dimethylaminoethyl)aminoiminomethylamino]benzoate.trihydrochloride] | – | 0.62 nmol/min/mL | –
9 | N=C(NCCN1CCCC1)Nc1ccc(C(=O)Oc2ccc3cc(C(=N)N)ccc3c2CC(N)=O)cc1 [Example 24] | – | 0.55 nmol/min/mL | –
10 | CNC(=N)Nc1ccc(C(=O)Oc2ccc3cc(C(=N)N)ccc3c2CC(N)=O)cc1 [Example 26, 6-amidino-1-carbamoylmethyl-2-naphthyl 4-methylaminoiminomethylaminobenzoate.dihydrochloride] | – | 0.60 nmol/min/mL | –
11 | CN=C(NC)Nc1ccc(C(=O)Oc2ccc3cc(C(=N)N)ccc3c2CC(N)=O)cc1 [Example 27, 6-amidino-1-carbamoylmethyl-2-naphthyl 4-methylaminomethyliminomethylaminobenzoate.dihydrochloride] | – | 0.52 nmol/min/mL | –
12 | N=C(N)c1ccc2c(CC(N)=O)c(OC(=O)c3ccc(NC4=NCCS4)cc3)ccc2c1 [Example 31, 6-amidino-1-carbamoylmethyl-2-naphthyl 4-[(4,5-dihydrothiazol-2-yl)amino]-benzoate.dihydrochloride] | – | – | 1.00
13 | COC(=O)Cc1c(OC(=O)c2ccc(NC3=NCCN3)cc2)ccc2cc(C(=N)N)ccc12 [Example 39, 6-amidino-1-methoxycarbonylmethyl-2-naphthyl 4-[(4,5-dihydro-1H-imidazol-2-yl)amino]benzoate.dimethanesulfonate] | – | 0.58 nmol/min/mL | 1.19
14 | Cl.Cl.N=C(N)Nc1ccc(C(=O)Oc2ccc3cc(C(=N)N)ccc3c2C=CC(N)=O)cc1 [Example 46, 6-amidino-1-(2-carbamoylvinyl)-2-naphthyl 4-aminoiminomethylaminobenzoate.dihydrochloride] | – | 0.63 nmol/min/mL | –
15 | CN(C)C(=O)COC(=O)c1c(OC(=O)c2ccc(NC3=NCCN3)cc2)ccc2cc(C(=N)N)ccc12 [Example 48, 6-amidino-1-dimethylcarbamoylmethoxycarbonyl-2-naphthyl 4-[(4,5-dihydro-1H-imidazol-2-yl)amino]benzoate.dihydrochloride] | – | – | 0.96
